Active and inactive are the calls of the source. No cut-off for these calls is given here.
Assays:
MCF7 [1] = test: Induction of ER degradation in human MCF7 cells at 10 uM incubated for 24 hrs by Western blot analysis; type: cell-based
Ishikawa = test: Antiproliferative activity against human Ishikawa cells assessed as cell growth inhibition at 20 uM incubated for 3 days by MTT assay; type: functional; details: for inhibition at 20 µM: 72 h, time 3 day; for inhibition: time 3.0 day
MCF7 [2] = test: Antiproliferative activity against human MCF7 cells assessed as cell growth inhibition incubated for 5 days by MTT assay; type: functional, cell-based; details: MCF7, 120 h
[3] = Toxicity in Sprague-Dawley rat uterus assessed as increase in uterine wet weight at 0.1 mg/kg, po for 2 days consecutively; type: organism-based; details: in vivo, 48 h, time 2 day
[4] = Toxicity in mouse xenografted with human MCF7 cells assessed as morphological changes in kidney at 30 mg/kg,po for 30 days daily by Hematoxylin and eosin staining based microscopy; type: organism-based; details: in vivo, 720 h, time 30 day
[5] = Toxicity in mouse xenografted with human MCF7 cells assessed as morphological changes in heart at 30 mg/kg,po for 30 days daily by Hematoxylin and eosin staining based microscopy; type: organism-based; details: in vivo, 720 h, time 30 day
MCF7 [6] = test: Antitumor activity against human MCF7 cells xenografted in nude mouse assessed as tumor growth inhibition at 30 mg/kg,po for 30 days daily; type: functional, organism-based; details: time 30.0 day
MCF7 [7] = test: Induction of ER degradation in human MCF7 cells at 10 uM incubated for 24 hrs by DAPI staining based immunofluorescence analysis; type: cell-based
MCF7 [8] = test: Antitumor activity against human MCF7 cells xenografted in nude mouse assessed as reduction in Ki67 expression at 30 mg/kg,po for 30 days daily by immunohistochemical analysis; type: functional, organism-based; details: time 30.0 day
Mus musculus [9] = test: In vivo ER degradation in mouse xenografted with human MCF7 cells assessed as reduction in PR expression level in tumor at 30 mg/kg,po for 30 days daily by […]; type: functional, organism-based; details: time 30.0 day
MCF7 [10] = test: Induction of ER degradation in human MCF7 cells at 0.001 to 10 uM incubated for 24 hrs by Western blot analysis; type: cell-based; details: dose 0.001-10 µM
MCF7 [11] = test: Induction of cell cycle arrest in human MCF7 cells assessed as accumulation at G0/G1 phase at 10 uM incubated for 24 hrs by flow cytometry (Rvb= 46.53 +/- 0.44%); type: functional
[12] = Toxicity in Sprague-Dawley rat uterus assessed as change in uterine wet weight at 30 mg/kg, po for 2 days consecutively; type: organism-based; details: in vivo, 48 h, time 2 day
MCF7 [13] = test: Induction of ER degradation in Estradiol stimulated human MCF7 cells assessed as decrease in PGR gene expression level at 1 to 10 uM incubated for 24 hrs by RT-qPCR analysis; type: cell-based; details: dose 1-10 µM
[14] = Toxicity in mouse xenografted with human MCF7 cells assessed as body weight loss at 30 mg/kg,po for 30 days daily; type: organism-based; details: in vivo, 720 h, time 30 day
Mus musculus [15] = test: In vivo ER degradation in mouse xenografted with human MCF7 cells assessed as reduction in ER expression level in tumor at 30 mg/kg,po for 30 days daily by […]; type: functional, organism-based; details: time 30.0 day
[16] = Toxicity in mouse xenografted with human MCF7 cells assessed as morphological changes in spleen at 30 mg/kg,po for 30 days daily by Hematoxylin and eosin staining based microscopy; type: organism-based; details: in vivo, 720 h, time 30 day
MCF7 [17] = test: Induction of ER degradation in human MCF7 cells transfected with ERE-luciferase plasmid assessed as decrease in estradiol induced ERE-luciferase activity by measuring luminescence at 10 uM incubated for 24 hrs by luciferase assay; type: cell-based
MCF7 [18] = test: Induction of ER degradation in Estradiol stimulated human MCF7 cells assessed as decrease in GREB1 mRNA expression level at 1 to 10 uM incubated for 24 hrs by RT-qPCR analysis; type: cell-based; details: dose 1-10 µM
[19] = Toxicity in mouse xenografted with human MCF7 cells assessed as morphological changes in liver at 30 mg/kg,po for 30 days daily by Hematoxylin and eosin staining based microscopy; type: organism-based; details: in vivo, 720 h, time 30 day
MCF7 [20] = test: Induction of ER degradation in Estradiol stimulated human MCF7 cells assessed as decrease in TFF1 gene expression level at 1 to 10 uM incubated for 24 hrs by RT-qPCR analysis; type: cell-based; details: dose 1-10 µM

| SMILES | IC50 (MCF7 [2]) [nM] | Activity (MCF7 [1]) | inhibition at 20 µM (Ishikawa) [%] | further results |
| --- | --- | --- | --- | --- |
| Cc1cc(/C=C/C(=O)O)ccc1Oc1c(C(=O)c2ccccc2)sc2cc(F)ccc12 | 3790 | Active | 6 |  |
| O=C(O)/C=C/c1ccc(Oc2c(C(=O)c3ccc4occc4c3)sc3cc(F)ccc23)cc1 | 1880 | Active | 12 |  |
| O=C(O)/C=C/c1ccc(Oc2c(C(=O)c3ccccc3)sc3cc(F)ccc23)cc1F | 1530 | Active |  | inhibition (Ishikawa): inactive |
| C[C@]12CC[C@@H]3c4ccc(O)cc4CC[C@H]3[C@@H]1CC[C@@H]2O [ESTRADIOL] |  |  |  | Activity [3]: Toxic |
| O=C(O)/C=C/c1ccc(Oc2c(C(=O)c3cccc4ccccc34)sc3cc(F)ccc23)cc1 | 8570 | Active | 8 |  |
| O=C(O)/C=C/c1ccc(Oc2c(C(=O)c3ccc4ccccc4c3)sc3cc(F)ccc23)cc1 | 4740 | Active | 25 |  |

Further lines, with some results ahead:

| IC50 (MCF7 [2]) [nM] | SMILES | Activity (MCF7 [1]) | inhibition at 20 µM (Ishikawa) [%] | further results |
| --- | --- | --- | --- | --- |
| 370 | CCc1ccccc1C(=O)c1sc2cc(F)ccc2c1Oc1ccc(/C=C/C(=O)O)cc1 | Active | 12 |  |
| 360 | Cc1cc(F)ccc1C(=O)c1sc2cc(F)ccc2c1Oc1ccc(/C=C/C(=O)O)cc1 | Active | 11 |  |
| 280 | Cc1cccc(C)c1C(=O)c1sc2cc(F)ccc2c1Oc1ccc(/C=C/C(=O)O)cc1 | Active |  | inhibition (Ishikawa): inactive |
| 200 | Cc1ccc(C(=O)c2sc3cc(F)ccc3c2Oc2ccc(/C=C/C(=O)O)cc2)c(C)c1 | Active | 13 | Activity [4]: Non-Toxic; Activity [5]: Non-Toxic; Activity (MCF7 [6]): Active; Activity (MCF7 [7]): Active; Activity (MCF7 [8]): Active; Activity (Mus musculus [9]): Active; Activity (MCF7 [10]): Dose-Dependent Effect; Activity (MCF7 [11]): 57.36%; Activity [12]: Non-Toxic; Activity (MCF7 [13]): Active; Activity [14]: Non-Toxic; Activity (Mus musculus [15]): Active; Activity [16]: Non-Toxic; Activity (MCF7 [17]): Active; Activity (MCF7 [18]): Active; Activity [19]: Non-Toxic; Activity (MCF7 [20]): Active |
| 1440 | O=C(O)/C=C/c1ccc(Oc2c(C(=O)c3ccc(OC(F)(F)F)cc3)sc3cc(F)ccc23)cc1 | Active | 18 |  |
| 320 | CC(C)c1ccccc1C(=O)c1sc2cc(F)ccc2c1Oc1ccc(/C=C/C(=O)O)cc1 | Active |  | inhibition (Ishikawa): inactive |
| 340 | COc1ccc(C(=O)c2sc3cc(F)ccc3c2Oc2ccc(/C=C/C(=O)O)cc2)cc1 | Active | 53 |  |

From ChEMBL document CHEMBL5360561, “Design, synthesis and biological evaluation of fluorinated selective estrogen receptor degraders (FSERDs) --- A promising strategy for advanced ER positive breast cancer” (Eur J Med Chem, 2023)
